Laboratory results taken from patent publication US9938262B2, “Benzamides” (Merck Patent GmbH, priority 2011, dated 2018).

Target: T1, FSHR (Homo sapiens, UniProt P23945)
T1 construct: expressed in transfected cells; host or cells: CHO (Cho-FSHR-LUC-1-1-43)
Test: EC50 of cyclic AMP production in CHO FSHR cells + EC20 FSH (Assay A)
Format: cell-based
Settings: CHO FSHR cells + EC20 FSH; Table 2; read-out: Assay A EC50 of cyclic AMP production
Method in brief: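 cAMP HTRF ratio (665/620 nm) read after 1 h, 37 °C exposure of CHO-FSHR cells to compound in presence of EC20 FSH ([…]) and IBMX 200 μM. Responses given relative to FSH standard maximum; EC50 derived.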

T1 sequence (P23945 18-695): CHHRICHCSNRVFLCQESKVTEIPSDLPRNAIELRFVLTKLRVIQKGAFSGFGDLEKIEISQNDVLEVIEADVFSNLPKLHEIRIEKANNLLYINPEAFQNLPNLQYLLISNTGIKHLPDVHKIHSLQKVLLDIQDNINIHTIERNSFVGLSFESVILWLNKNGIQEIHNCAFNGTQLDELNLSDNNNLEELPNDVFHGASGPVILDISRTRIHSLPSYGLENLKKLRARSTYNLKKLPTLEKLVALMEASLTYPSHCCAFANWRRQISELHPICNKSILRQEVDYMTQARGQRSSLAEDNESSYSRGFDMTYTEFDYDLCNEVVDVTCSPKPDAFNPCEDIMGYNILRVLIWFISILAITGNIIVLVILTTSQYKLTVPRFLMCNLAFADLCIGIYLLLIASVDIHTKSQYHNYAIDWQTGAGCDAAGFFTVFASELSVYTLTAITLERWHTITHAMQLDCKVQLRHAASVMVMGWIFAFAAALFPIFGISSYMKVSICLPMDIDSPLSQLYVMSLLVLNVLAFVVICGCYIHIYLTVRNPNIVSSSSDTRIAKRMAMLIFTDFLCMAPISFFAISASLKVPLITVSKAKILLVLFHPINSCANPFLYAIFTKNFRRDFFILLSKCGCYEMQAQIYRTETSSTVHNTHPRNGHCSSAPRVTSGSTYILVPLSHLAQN
T1 sequence (P01215 25-116 partner): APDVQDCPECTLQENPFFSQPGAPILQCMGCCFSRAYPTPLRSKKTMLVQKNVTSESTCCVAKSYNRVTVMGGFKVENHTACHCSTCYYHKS
T1 sequence (P01225 19-129 partner): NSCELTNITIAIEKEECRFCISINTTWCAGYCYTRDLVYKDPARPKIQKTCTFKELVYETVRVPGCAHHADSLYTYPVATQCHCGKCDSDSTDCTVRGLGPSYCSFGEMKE

EC50	SMILES
100 to 1000 nM	Cc1ccccc1N1CCN(c2ccc(C(=O)NCCCN3CCCC3=O)cc2NC(=O)c2cnc(C3CC3)o2)CC1 [Compound 386]
100 to 1000 nM	Cc1ccccc1N1CCN(c2ccc(C(=O)NCCNC3CCS(=O)(=O)C3)cc2NC(=O)c2ccco2)CC1 (stereo not drawn) [Compound 387]
< 100 nM	Cc1ccccc1N1CCN(c2ccc(C(=O)NCCCc3ccc(O)cc3)cc2NC(=O)c2ccco2)CC1 [Compound 388]
> 10000 nM	Cc1ccccc1N1CCN(c2ccc(C(=O)NCCNC3CCCC3)cc2NC(=O)c2ccco2)CC1 [Compound 389]
100 to 1000 nM	Cc1ccccc1N1CCN(c2ccc(C(=O)NCCCc3nc(C)c(C)s3)cc2NC(=O)c2coc(C3CC3)n2)CC1 [Compound 390]
100 to 1000 nM	Cc1ccccc1N1CCN(c2ccc(C(=O)NCCCc3scnc3C)cc2NC(=O)c2coc(C3CC3)n2)CC1 [Compound 391]
100 to 1000 nM	Cc1ccccc1N1CCN(c2ccc(C(=O)NCCCc3nccs3)cc2NC(=O)c2coc(C3CC3)n2)CC1 [Compound 393]
100 to 1000 nM	Cc1csc(CCCNC(=O)c2ccc(N3CCN(c4ccccc4C)CC3)c(NC(=O)c3coc(C4CC4)n3)c2)n1 [Compound 395]
100 to 1000 nM	Cc1ccccc1N1CCN(c2ccc(C(=O)NCCCn3cncn3)cc2NC(=O)c2coc(C3CC3)n2)CC1 [Compound 396]
100 to 1000 nM	Cc1ccccc1N1CCN(c2ccc(C(=O)NCCc3ccccc3C#N)cc2NC(=O)c2coc(C3CC3)n2)CC1 [Compound 397]
100 to 1000 nM	Cc1ccc(C(=O)Nc2cc(C(=O)NC(C)CCN3CCCC3=O)ccc2N2CCN(c3ccccc3C)CC2)o1 (stereo not drawn) [Compound 398]
100 to 1000 nM	O=C(NCCCN1CCCC1=O)c1ccc(N2CC=C(c3ccccc3)CC2)c(NC(=O)c2coc(C3CC3)n2)c1 [Compound 399]
> 10000 nM	CC(=O)NC1(c2ccccc2)CCN(c2ccc(C(=O)NCCCN3CCCC3=O)cc2NC(=O)c2coc(C3CC3)n2)CC1 [Compound 400]
> 10000 nM	NC1(c2ccccc2)CCN(c2ccc(C(=O)NCCCN3CCCC3=O)cc2NC(=O)c2coc(C3CC3)n2)CC1 [Compound 401]
100 to 1000 nM	O=C(NCCCN1CCCC1=O)c1ccc(N2CCN(c3ccccc3F)CC2)c(NC(=O)c2coc(C3CC3)n2)c1 [Compound 402]
1000 to 10000 nM	O=C(NCCCN1CCCC1=O)c1ccc(N2CCN(c3ccccc3OC(F)(F)F)CC2)c(NC(=O)c2coc(C3CC3)n2)c1 [Compound 403]
1000 to 10000 nM	Cc1ccc(C(=O)Nc2cc(C(=O)NCCCN3CCCC3=O)ccc2N2CCN(c3ccccc3OC(F)(F)F)CC2)o1 [Compound 404]
100 to 1000 nM	Cc1ccccc1N(C)C1CCN(c2ccc(C(=O)NCCCN3CCCC3=O)cc2NC(=O)c2coc(C3CC3)n2)CC1 [Compound 405]
100 to 1000 nM	Cc1ccccc1N1CCN(c2ccc(C(=O)NCCCN3CCOCC3)cc2NC(=O)c2coc(C3CC3)n2)CC1 [Compound 406]
> 10000 nM	CN(c1ccccc1)C1CCN(c2ccc(C(=O)NCCCN3CCCC3=O)cc2NC(=O)c2coc(C3CC3)n2)CC1 [Compound 407]
100 to 1000 nM	Cc1ccccc1N1CCN(c2ccc(C(=O)NCCc3cccc(CN(C)C)c3)cc2NC(=O)c2coc(C3CC3)n2)CC1 [Compound 408]
> 10000 nM	Cc1ccccc1N1CCN(c2ccc(C(=O)Nc3ccc(C(C)(C)C#N)cc3)cc2NC(=O)c2coc(C3CC3)n2)CC1 [Compound 409]
100 to 1000 nM	Cc1ccccc1N1CCN(c2ccc(C(=O)NCCc3ccccc3C(N)=O)cc2NC(=O)c2coc(C3CC3)n2)CC1 [Compound 411]
1000 to 10000 nM	Cc1ccccc1N1CCN(c2ccc(C(=O)Nc3ccnn3CC3CCOC3)cc2NC(=O)c2coc(C3CC3)n2)CC1 (stereo not drawn) [Compound 412]
1000 to 10000 nM	Cc1cncnc1N1CCN(c2ccc(C(=O)NCCCN3CCCC3=O)cc2NC(=O)c2coc(C3CC3)n2)CC1 [Compound 413]
100 to 1000 nM	Cc1ccccc1C1=CCN(c2ccc(C(=O)NCCCN3CCCC3=O)cc2NC(=O)c2coc(C3CC3)n2)CC1 [Compound 414]
> 10000 nM	Cc1ccccc1N1CCN(c2ccc(C(=O)NCCCN3CCCC3=O)cc2NC(=O)c2nccn2C)CC1 [Compound 415]
